Laboratory results: patent US20250195453A1, “NOVEL ANTIBIOTIC WITH QUORUM SENSING INHIBITOR ACTIVITY” (priority 2022, published 2025)

Legend:
C. violaceum = assay: Viability assay (resazurin) of C. violaceum in parallel to quorum sensing assay; assay type: cell-based, Chromobacterium violaceum; settings: assays in parallel with the quorum sensing assays
Description: To ascertain that reduced OD562 signal is due to inhibition of quorum sensing and not merely due to reduced viability of bacteria, a viability assay may be done in parallel to the quorum sensing assay. To assess viability of bacteria, C. violaceum bacteria are grown o/n at 27° C. in TSB medium. The bacteria are diluted 1000× in TSB medium and grown until OD600=0.5-0.7. The bacteria are resuspended in TSB medium containing compound and incubated at 27° C. for 20 h. Bacteria are collected by centrifugation for 10 min at 3000 rpm. Supernatant is aspirated and resazurin (150 μg/mL in physiological salt solution) is added. Plates are incubated for another 45 min at 27° C. and fluorescence is measured by excitation at 540 nm and emission at 590 nm. If the fluorescent signal is less than 70% of the fluorescent signal of control untreated bacteria, the sample is scored as having an effect on viability of the bacteria.
C. violaceum bacteria were grown o/n in tryptic soy broth at 27° C. The bacteria were diluted in TSB and grown until OD600=0.5-0.7. […] The plates were centrifuged again for 10 min at 3000 rpm and 100 μL of the supernatant containing the violacein was transferred to a new 96-well plate and the violacein production was quantified by measuring the OD562 on an ASYS expert plus microplate reader. […]

rhlA-GFP reporter = assay: PAO1 quorum sensing reporter assay, rhlA-GFP; assay type: cell-based, Pseudomonas aeruginosa (PAO1); settings: funalenone concentrations up to 500 μM
Description: (§1) Quorum sensing activity in PAO1 cells can be assessed by a the person skilled in the art, preferably by a quorum sensing reporter assay as exemplified herein. PAO1 reporters express green fluorescent protein under the control of the lasB promoter, the rhlA promoter, the pqsA promoter or a constitutive promoter, PA1/04/03. Reporter bacteria are inoculated in AB minimal media supplemented with 0.5% glucose and 0.5% casamino acids. Cultures are diluted in physiological salt solution to an OD450=0.1-0.2 before addition to AB medium with a range of concentrations of compound. The GFP fluorescence (excitation 485 nm, emission 535 nm) and absorbance (600 nm) are determined every 15 min for 15 h at 34° C. IC50 values are calculated based on the maximum slope of GFP/OD. If the IC50 on reporter lines is less than half of the IC50 on control bacteria, the compound is scored as quorum sensing inhibitor.
(§2) To test the potential of paecilomycone as quorum sensing inhibitor in more clinically relevant bacteria, the effect on P. aeruginosa (PAO1) was tested. […] To correct for potential effects on bacterial growth, the OD600 was determined in parallel with GFP fluorescence intensity and RFU/OD was plotted.

pqsA-GFP reporter = assay: PAO1 quorum sensing reporter assay, pqsA-GFP; assay type: cell-based, Pseudomonas aeruginosa (PAO1); settings: funalenone concentrations up to 500 μM
Description: as §1, §2

lasB-GFP reporter = assay: PAO1 quorum sensing reporter assay, lasB-GFP; assay type: cell-based, Pseudomonas aeruginosa (PAO1); settings: funalenone concentrations up to 500 μM
Description: as §1, §2

[1] = test system: violacein production in C. violaceum; assay: Quorum sensing assay: violacein production in C. violaceum; assay type: cell-based, Chromobacterium violaceum; settings: funalenone up to 1 mM
Description: C. violaceum bacteria were grown o/n in tryptic soy broth at 27° C. The bacteria were diluted in TSB and grown until OD600=0.5-0.7. Bacteria were diluted 1:1000 and 50 μL bacterial suspension was transferred to 96-well plates containing 50 μL fungal filtrate, extract or purified compound in a range of concentrations. […] Plates were incubated for 20 h at 27° C. while shaking at 180 rpm. Plates were centrifuged for 10 min at 3000 rpm to precipitate the violacein. Supernatant was aspirated and the pellet was resuspended in 200 μL 96% ethanol. The plates were centrifuged again for 10 min at 3000 rpm and 100 μL of the supernatant containing the violacein was transferred to a new 96-well plate and the violacein production was quantified by measuring the OD562 on an ASYS expert plus microplate reader.

WT-GFP = assay type: cell-based, Pseudomonas aeruginosa (PAO1); settings: funalenone concentrations up to 500 μM
Description: as §1, §2

COC1=C(O)c2c(O)cc(C)c3c(O)cc(O)c(c23)C1=O [funalenone]
Effect on cell viability of C. violaceum (C. violaceum): did not affect cell viability | Effect on quorum sensing, rhlA-GFP reporter (rhlA-GFP reporter): no effects on quorum sensing | Effect on quorum sensing, pqsA-GFP reporter (pqsA-GFP reporter): no effects on quorum sensing | Effect on quorum sensing, lasB-GFP reporter (lasB-GFP reporter): no effects on quorum sensing | Inhibition of violacein production [1]: did not inhibit violacein production | Effect on control WT-GFP reporter (WT-GFP): no effects on quorum sensing
